Measured values: PubChem BioAssay (NCI)
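Protocol summary: plate cells (96-well), add compound at 5 concentrations, incubate 48 h, interpolate endpoints linearly. Definition used: TGI = concentration required for complete inhibition of growth.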

Experiments:
Assay in all cases: NCI anticancer screen, dose series, 48 h
HOP-18 NSCLC = system: HOP-18 NSCLC
SF-295 CNS = system: SF-295 CNS
IGROV1 ovarian = system: IGROV1 ovarian
HCT-116 colon = system: HCT-116 colon
786-0 renal = system: 786-0 renal
DMS 114 small cell lung = system: DMS 114 small cell lung
UACC-62 melanoma = system: UACC-62 melanoma
NCI-H522 lung = system: NCI-H522 lung
NCI-H226 lung = system: NCI-H226 lung
EKVX NSCLC = system: EKVX NSCLC
KM12 colon = system: KM12 colon
HCC-2998 colon = system: HCC-2998 colon
MOLT-4 leukemia = system: MOLT-4 leukemia
SNB-75 CNS = system: SNB-75 CNS
HT29 colon = system: HT29 colon
SW-620 colon = system: SW-620 colon
SK-OV-3 ovarian = system: SK-OV-3 ovarian
K-562 leukemia = system: K-562 leukemia
SK-MEL-5 melanoma = system: SK-MEL-5 melanoma
SK-MEL-28 melanoma = system: SK-MEL-28 melanoma
LXFL 529 NSCLC = system: LXFL 529 NSCLC
HOP-62 NSCLC = system: HOP-62 NSCLC
UACC-257 melanoma = system: UACC-257 melanoma
NCI-H460 lung = system: NCI-H460 lung
OVCAR-3 ovarian = system: OVCAR-3 ovarian
OVCAR-4 ovarian = system: OVCAR-4 ovarian
KM20L2 colon = system: KM20L2 colon
XF 498 CNS = system: XF 498 CNS
A549 NSCLC = system: A549 NSCLC
LOX IMVI melanoma = system: LOX IMVI melanoma
SK-MEL-2 melanoma = system: SK-MEL-2 melanoma
HL-60(TB) leukemia = system: HL-60(TB) leukemia
SF-268 CNS = system: SF-268 CNS
DMS 273 small cell lung = system: DMS 273 small cell lung
SN12C renal = system: SN12C renal
TK-10 renal = system: TK-10 renal
A498 renal = system: A498 renal
MALME-3M melanoma = system: MALME-3M melanoma
U251 CNS = system: U251 CNS
SF-539 CNS = system: SF-539 CNS
RPMI-8226 leukemia = system: RPMI-8226 leukemia
M19-MEL melanoma = system: M19-MEL melanoma
ACHN renal = system: ACHN renal
CAKI-1 renal = system: CAKI-1 renal
M14 melanoma = system: M14 melanoma
SR leukemia = system: SR leukemia
NCI-H23 lung = system: NCI-H23 lung
HOP-92 NSCLC = system: HOP-92 NSCLC
OVCAR-5 ovarian = system: OVCAR-5 ovarian
SNB-19 CNS = system: SNB-19 CNS
DLD-1 colon = system: DLD-1 colon
COLO 205 colon = system: COLO 205 colon
HCT-15 colon = system: HCT-15 colon
SNB-78 CNS = system: SNB-78 CNS
OVCAR-8 ovarian = system: OVCAR-8 ovarian
CCRF-CEM leukemia = system: CCRF-CEM leukemia
RXF-631 renal = system: RXF-631 renal
RXF 393 renal = system: RXF 393 renal
UO-31 renal = system: UO-31 renal

Measured: TGI

CC(=O)O[C@H]1C(N(C)C(=O)c2ccccc2)CC[C@]2(C)C3CC[C@@]4(C)C(CC(O)[C@@H]4C(C)N(C)C)[C@@H]3CCC12 (some centres not stated)
> 100 µM: HOP-18 NSCLC | SF-295 CNS | IGROV1 ovarian | HCT-116 colon | 786-0 renal | DMS 114 small cell lung | UACC-62 melanoma | NCI-H522 lung | NCI-H226 lung | EKVX NSCLC | KM12 colon | HCC-2998 colon | MOLT-4 leukemia | SNB-75 CNS | HT29 colon | SW-620 colon | SK-OV-3 ovarian | K-562 leukemia | SK-MEL-5 melanoma | SK-MEL-28 melanoma | LXFL 529 NSCLC | HOP-62 NSCLC | UACC-257 melanoma | NCI-H460 lung | OVCAR-3 ovarian | OVCAR-4 ovarian | KM20L2 colon | XF 498 CNS | A549 NSCLC | LOX IMVI melanoma | SK-MEL-2 melanoma | HL-60(TB) leukemia | SF-268 CNS | DMS 273 small cell lung | SN12C renal | TK-10 renal | A498 renal | MALME-3M melanoma | U251 CNS | SF-539 CNS | RPMI-8226 leukemia | M19-MEL melanoma | ACHN renal | CAKI-1 renal | M14 melanoma | SR leukemia | NCI-H23 lung | HOP-92 NSCLC | OVCAR-5 ovarian | SNB-19 CNS | DLD-1 colon | COLO 205 colon | HCT-15 colon | SNB-78 CNS | OVCAR-8 ovarian | CCRF-CEM leukemia

CC(C)=CC(C(O)c1ccccc1)S(=O)(=O)c1nccn1C (configuration not stated)
> 100 µM: HOP-18 NSCLC | SF-295 CNS | IGROV1 ovarian | HCT-116 colon | 786-0 renal | DMS 114 small cell lung | RXF-631 renal | UACC-62 melanoma | NCI-H522 lung | NCI-H226 lung | EKVX NSCLC | KM12 colon | HCC-2998 colon | MOLT-4 leukemia | SNB-75 CNS | HT29 colon | SW-620 colon | SK-OV-3 ovarian | K-562 leukemia | SK-MEL-5 melanoma | SK-MEL-28 melanoma | LXFL 529 NSCLC | HOP-62 NSCLC | UACC-257 melanoma | NCI-H460 lung | OVCAR-3 ovarian | OVCAR-4 ovarian | KM20L2 colon | XF 498 CNS | A549 NSCLC | LOX IMVI melanoma | SK-MEL-2 melanoma | HL-60(TB) leukemia | RXF 393 renal | SF-268 CNS | DMS 273 small cell lung | UO-31 renal | SN12C renal | TK-10 renal | MALME-3M melanoma | U251 CNS | SF-539 CNS | RPMI-8226 leukemia | M19-MEL melanoma | ACHN renal | M14 melanoma | SR leukemia | NCI-H23 lung | HOP-92 NSCLC | OVCAR-5 ovarian | SNB-19 CNS | DLD-1 colon | COLO 205 colon | HCT-15 colon | OVCAR-8 ovarian | CCRF-CEM leukemia

CC(=O)NC(CCCCNC(=O)OCc1ccccc1)C(=O)NCc1ccccc1 (configuration not stated)
> 100 µM: SF-295 CNS | IGROV1 ovarian | HCT-116 colon | 786-0 renal | DMS 114 small cell lung | UACC-62 melanoma | NCI-H522 lung | NCI-H226 lung | EKVX NSCLC | KM12 colon | HCC-2998 colon | MOLT-4 leukemia | SNB-75 CNS | HT29 colon | SW-620 colon | SK-OV-3 ovarian | K-562 leukemia | SK-MEL-5 melanoma | SK-MEL-28 melanoma | LXFL 529 NSCLC | HOP-62 NSCLC | UACC-257 melanoma | NCI-H460 lung | OVCAR-3 ovarian | OVCAR-4 ovarian | KM20L2 colon | XF 498 CNS | A549 NSCLC | LOX IMVI melanoma | SK-MEL-2 melanoma | RXF 393 renal | SF-268 CNS | DMS 273 small cell lung | UO-31 renal | SN12C renal | TK-10 renal | A498 renal | MALME-3M melanoma | U251 CNS | SF-539 CNS | RPMI-8226 leukemia | M19-MEL melanoma | ACHN renal | CAKI-1 renal | M14 melanoma | NCI-H23 lung | HOP-92 NSCLC | OVCAR-5 ovarian | SNB-19 CNS | DLD-1 colon | COLO 205 colon | HCT-15 colon | SNB-78 CNS | OVCAR-8 ovarian | CCRF-CEM leukemia
